{"source": "paper PMC10009787", "about": "(ACS Medicinal Chemistry Letters, 2023)", "key": {"ABL2 (Arg)": {"target": "ABL2 (Arg) (Homo sapiens, UniProt P42684)", "assay": "SelectScreen kinase profiling", "assay_type": "biochemical", "conditions": "average of duplicate"}, "CSK": {"target": "CSK (Homo sapiens, UniProt P41240)", "assay": "SelectScreen kinase profiling", "assay_type": "biochemical", "conditions": "average of duplicate"}, "CSNK1E (CK1 epsilon)": {"target": "CSNK1E (CK1 epsilon) (Homo sapiens, UniProt P49674)", "assay": "SelectScreen kinase profiling", "assay_type": "biochemical", "conditions": "average of duplicate"}, "EGFR (ErbB1) L858R": {"target": "EGFR (ErbB1) L858R (Homo sapiens, UniProt P00533, L858R)", "assay": "SelectScreen kinase profiling", "assay_type": "biochemical", "conditions": "average of duplicate"}, "EGFR (ErbB1) T790M L858R": {"target": "EGFR (ErbB1) T790M L858R (Homo sapiens, UniProt P00533, L858R/T790M)", "sequence (P00533 25-1210 T790M/L858R)": "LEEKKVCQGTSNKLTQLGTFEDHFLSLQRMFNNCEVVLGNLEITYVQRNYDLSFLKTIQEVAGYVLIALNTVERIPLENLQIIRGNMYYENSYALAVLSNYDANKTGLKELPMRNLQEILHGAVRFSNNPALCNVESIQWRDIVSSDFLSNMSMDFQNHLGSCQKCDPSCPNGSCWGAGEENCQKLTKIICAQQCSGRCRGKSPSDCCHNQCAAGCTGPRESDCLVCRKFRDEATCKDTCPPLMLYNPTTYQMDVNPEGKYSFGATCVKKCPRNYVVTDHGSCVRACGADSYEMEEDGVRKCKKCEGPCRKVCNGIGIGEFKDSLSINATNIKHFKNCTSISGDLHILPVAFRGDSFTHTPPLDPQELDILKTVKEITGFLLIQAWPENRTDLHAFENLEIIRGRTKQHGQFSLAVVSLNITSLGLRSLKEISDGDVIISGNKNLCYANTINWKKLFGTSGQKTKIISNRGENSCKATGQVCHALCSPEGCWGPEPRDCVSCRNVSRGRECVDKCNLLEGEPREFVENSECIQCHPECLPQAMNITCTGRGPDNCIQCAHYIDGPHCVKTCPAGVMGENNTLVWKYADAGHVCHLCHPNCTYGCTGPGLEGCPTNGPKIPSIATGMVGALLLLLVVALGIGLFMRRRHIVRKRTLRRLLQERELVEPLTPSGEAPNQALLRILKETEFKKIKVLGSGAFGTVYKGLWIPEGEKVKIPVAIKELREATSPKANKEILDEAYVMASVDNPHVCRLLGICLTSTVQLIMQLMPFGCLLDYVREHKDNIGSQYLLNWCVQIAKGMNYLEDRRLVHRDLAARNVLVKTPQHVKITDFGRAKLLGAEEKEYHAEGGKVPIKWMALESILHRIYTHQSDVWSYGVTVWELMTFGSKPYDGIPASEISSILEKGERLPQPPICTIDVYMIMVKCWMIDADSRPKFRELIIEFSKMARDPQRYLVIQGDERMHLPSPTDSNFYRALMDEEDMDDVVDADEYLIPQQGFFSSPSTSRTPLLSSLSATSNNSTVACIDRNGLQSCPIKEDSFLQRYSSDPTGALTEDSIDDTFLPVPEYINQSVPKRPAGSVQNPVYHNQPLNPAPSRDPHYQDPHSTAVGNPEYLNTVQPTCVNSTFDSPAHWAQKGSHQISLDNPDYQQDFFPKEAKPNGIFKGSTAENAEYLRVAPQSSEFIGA", "assay": "SelectScreen kinase profiling", "assay_type": "biochemical", "conditions": "average of duplicate"}, "EGFR (ErbB1) T790M": {"target": "EGFR (ErbB1) T790M (Homo sapiens, UniProt P00533, T790M)", "assay": "SelectScreen kinase profiling", "assay_type": "biochemical", "conditions": "average of duplicate"}, "FGFR1": {"target": "FGFR1 (Homo sapiens, UniProt P11362)", "sequence (P11362 22-822)": "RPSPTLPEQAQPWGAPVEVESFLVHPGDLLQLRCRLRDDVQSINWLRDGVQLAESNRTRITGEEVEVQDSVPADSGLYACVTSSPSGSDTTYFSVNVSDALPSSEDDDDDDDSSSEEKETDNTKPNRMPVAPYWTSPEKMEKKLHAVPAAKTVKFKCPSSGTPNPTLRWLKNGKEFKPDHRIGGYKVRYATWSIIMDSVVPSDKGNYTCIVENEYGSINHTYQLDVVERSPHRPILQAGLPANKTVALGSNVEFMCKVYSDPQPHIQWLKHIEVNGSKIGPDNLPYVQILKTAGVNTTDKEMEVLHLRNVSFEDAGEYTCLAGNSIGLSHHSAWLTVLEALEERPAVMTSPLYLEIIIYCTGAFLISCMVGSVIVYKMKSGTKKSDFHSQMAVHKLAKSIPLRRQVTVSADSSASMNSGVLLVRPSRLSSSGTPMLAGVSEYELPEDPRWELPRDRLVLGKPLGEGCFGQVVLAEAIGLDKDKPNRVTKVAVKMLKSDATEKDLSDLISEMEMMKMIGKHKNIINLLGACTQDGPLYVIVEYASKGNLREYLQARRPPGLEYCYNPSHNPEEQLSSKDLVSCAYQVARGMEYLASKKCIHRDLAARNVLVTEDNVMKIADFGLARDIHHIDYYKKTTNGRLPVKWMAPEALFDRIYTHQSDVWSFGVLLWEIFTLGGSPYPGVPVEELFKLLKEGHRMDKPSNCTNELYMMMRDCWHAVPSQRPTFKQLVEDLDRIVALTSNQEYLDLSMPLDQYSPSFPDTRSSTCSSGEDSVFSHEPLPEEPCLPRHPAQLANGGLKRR", "assay": "SelectScreen kinase profiling", "assay_type": "biochemical", "conditions": "average of duplicate"}, "FGFR2": {"target": "FGFR2 (Homo sapiens, UniProt P21802)", "assay": "SelectScreen kinase profiling", "assay_type": "biochemical", "conditions": "average of duplicate"}, "FGR": {"target": "FGR (Homo sapiens, UniProt P09769)", "sequence (P09769 whole entry)": "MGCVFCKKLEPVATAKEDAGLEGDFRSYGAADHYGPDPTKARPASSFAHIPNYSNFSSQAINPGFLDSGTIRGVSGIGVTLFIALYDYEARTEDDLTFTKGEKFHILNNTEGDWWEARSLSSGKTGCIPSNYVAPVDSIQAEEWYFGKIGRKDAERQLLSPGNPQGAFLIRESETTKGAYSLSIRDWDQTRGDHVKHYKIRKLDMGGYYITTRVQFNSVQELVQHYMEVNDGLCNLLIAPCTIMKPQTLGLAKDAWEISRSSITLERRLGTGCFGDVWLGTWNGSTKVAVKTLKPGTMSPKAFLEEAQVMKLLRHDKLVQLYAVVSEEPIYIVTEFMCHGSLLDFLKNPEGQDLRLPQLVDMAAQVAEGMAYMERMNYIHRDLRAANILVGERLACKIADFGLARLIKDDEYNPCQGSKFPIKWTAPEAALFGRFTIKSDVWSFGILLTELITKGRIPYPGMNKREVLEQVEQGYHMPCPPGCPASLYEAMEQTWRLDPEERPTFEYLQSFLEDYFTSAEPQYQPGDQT", "assay": "SelectScreen kinase profiling", "assay_type": "biochemical", "conditions": "average of duplicate"}, "FLT3": {"target": "FLT3 (Homo sapiens, UniProt P36888)", "assay": "SelectScreen kinase profiling", "assay_type": "biochemical", "conditions": "average of duplicate"}, "FLT4 (VEGFR3)": {"target": "FLT4 (VEGFR3) (Homo sapiens, UniProt P35916)", "assay": "SelectScreen kinase profiling", "assay_type": "biochemical", "conditions": "average of duplicate"}, "KDR (VEGFR2)": {"target": "KDR (VEGFR2) (Homo sapiens, UniProt P35968)", "sequence (P35968 20-1356)": "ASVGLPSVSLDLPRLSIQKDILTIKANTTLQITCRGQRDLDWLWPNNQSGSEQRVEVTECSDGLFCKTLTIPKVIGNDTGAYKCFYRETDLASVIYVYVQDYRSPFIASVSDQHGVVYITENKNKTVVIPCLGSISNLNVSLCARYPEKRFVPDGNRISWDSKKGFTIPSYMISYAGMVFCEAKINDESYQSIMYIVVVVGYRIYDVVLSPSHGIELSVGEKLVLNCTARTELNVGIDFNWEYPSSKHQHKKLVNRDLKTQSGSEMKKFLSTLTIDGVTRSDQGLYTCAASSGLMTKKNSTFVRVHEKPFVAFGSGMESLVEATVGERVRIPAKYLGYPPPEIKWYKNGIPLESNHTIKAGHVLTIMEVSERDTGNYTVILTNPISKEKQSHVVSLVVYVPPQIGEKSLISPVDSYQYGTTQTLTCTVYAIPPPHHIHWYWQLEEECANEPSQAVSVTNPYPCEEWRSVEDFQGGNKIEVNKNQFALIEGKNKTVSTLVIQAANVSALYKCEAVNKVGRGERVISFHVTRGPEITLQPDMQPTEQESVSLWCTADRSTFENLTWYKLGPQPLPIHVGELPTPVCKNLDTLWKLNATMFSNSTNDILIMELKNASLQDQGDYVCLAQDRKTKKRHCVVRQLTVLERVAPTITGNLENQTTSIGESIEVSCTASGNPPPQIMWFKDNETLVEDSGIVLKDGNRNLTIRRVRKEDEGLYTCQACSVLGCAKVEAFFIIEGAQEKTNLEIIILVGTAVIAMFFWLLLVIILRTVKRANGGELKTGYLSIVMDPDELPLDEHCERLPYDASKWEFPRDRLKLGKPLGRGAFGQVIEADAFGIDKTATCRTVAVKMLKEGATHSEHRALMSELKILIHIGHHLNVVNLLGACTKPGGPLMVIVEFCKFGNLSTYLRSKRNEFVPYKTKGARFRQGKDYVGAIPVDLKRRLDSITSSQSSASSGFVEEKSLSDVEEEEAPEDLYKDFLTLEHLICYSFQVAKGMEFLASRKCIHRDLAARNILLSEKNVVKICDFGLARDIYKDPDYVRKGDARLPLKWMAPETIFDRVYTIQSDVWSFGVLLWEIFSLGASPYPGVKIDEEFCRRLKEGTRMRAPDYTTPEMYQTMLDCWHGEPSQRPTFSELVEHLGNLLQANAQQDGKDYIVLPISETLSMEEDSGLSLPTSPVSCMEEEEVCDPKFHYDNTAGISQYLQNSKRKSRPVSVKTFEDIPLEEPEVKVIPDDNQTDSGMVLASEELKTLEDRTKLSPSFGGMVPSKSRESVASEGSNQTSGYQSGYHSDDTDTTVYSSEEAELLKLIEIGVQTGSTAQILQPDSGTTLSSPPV", "assay": "SelectScreen kinase profiling", "assay_type": "biochemical", "conditions": "average of duplicate"}, "TNK1": {"target": "TNK1 (Homo sapiens, UniProt Q13470)", "assay": "SelectScreen kinase profiling", "assay_type": "biochemical", "conditions": "average of duplicate"}, "YES1": {"target": "YES1 (Homo sapiens, UniProt P07947)", "assay": "SelectScreen kinase profiling", "assay_type": "biochemical", "conditions": "average of duplicate"}, "MAP2K2 (MEK2)": {"target": "MAP2K2 (MEK2) (Homo sapiens, UniProt P36507)", "assay": "SelectScreen kinase profiling", "assay_type": "biochemical", "conditions": "average of duplicate"}, "TNK2 (ACK)": {"target": "TNK2 (ACK) (Homo sapiens, UniProt Q07912)", "assay": "SelectScreen kinase profiling", "assay_type": "biochemical", "conditions": "average of duplicate"}, "ZAK": {"target": "ZAK (Homo sapiens, UniProt Q9NYL2)", "assay": "SelectScreen kinase profiling", "assay_type": "biochemical", "conditions": "average of duplicate"}, "BLK": {"target": "BLK (Homo sapiens, UniProt P51451)", "sequence (P51451 whole entry)": "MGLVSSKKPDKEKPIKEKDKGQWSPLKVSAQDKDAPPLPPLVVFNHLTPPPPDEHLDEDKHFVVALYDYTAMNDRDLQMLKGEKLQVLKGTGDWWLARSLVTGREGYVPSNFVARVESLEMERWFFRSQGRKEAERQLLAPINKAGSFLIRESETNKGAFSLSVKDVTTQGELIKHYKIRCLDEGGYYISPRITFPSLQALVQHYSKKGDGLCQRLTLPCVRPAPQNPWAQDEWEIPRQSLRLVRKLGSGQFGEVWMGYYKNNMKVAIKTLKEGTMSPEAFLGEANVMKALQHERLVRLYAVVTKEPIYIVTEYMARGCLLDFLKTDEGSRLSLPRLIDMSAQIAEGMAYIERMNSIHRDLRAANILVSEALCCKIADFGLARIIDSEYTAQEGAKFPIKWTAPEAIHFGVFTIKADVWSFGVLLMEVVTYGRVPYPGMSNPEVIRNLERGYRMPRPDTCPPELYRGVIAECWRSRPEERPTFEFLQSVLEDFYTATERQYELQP", "assay": "SelectScreen kinase profiling / Z′-Lyte kinase assay"}, "ITK": {"target": "T1, ITK (Homo sapiens, UniProt Q08881)", "T1 sequence (Q08881 1-620)": "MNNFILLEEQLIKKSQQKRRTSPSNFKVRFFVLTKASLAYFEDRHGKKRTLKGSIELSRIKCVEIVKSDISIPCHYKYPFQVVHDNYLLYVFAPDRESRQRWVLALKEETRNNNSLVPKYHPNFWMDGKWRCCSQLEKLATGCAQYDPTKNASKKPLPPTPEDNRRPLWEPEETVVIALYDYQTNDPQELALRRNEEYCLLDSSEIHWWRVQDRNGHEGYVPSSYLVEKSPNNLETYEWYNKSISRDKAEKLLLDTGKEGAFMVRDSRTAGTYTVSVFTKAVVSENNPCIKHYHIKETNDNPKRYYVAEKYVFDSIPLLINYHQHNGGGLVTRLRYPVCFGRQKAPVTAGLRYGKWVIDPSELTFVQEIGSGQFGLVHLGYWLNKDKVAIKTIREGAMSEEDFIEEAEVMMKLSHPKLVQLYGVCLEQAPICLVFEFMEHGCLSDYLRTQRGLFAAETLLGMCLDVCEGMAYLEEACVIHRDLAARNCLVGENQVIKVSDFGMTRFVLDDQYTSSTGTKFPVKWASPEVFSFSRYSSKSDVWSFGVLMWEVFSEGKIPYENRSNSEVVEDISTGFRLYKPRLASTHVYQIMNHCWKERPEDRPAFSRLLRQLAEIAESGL", "assay": "SelectScreen kinase profiling / Z′-Lyte kinase assay"}, "BTK": {"target": "BTK (Homo sapiens, UniProt Q06187)", "sequence (Q06187 whole entry)": "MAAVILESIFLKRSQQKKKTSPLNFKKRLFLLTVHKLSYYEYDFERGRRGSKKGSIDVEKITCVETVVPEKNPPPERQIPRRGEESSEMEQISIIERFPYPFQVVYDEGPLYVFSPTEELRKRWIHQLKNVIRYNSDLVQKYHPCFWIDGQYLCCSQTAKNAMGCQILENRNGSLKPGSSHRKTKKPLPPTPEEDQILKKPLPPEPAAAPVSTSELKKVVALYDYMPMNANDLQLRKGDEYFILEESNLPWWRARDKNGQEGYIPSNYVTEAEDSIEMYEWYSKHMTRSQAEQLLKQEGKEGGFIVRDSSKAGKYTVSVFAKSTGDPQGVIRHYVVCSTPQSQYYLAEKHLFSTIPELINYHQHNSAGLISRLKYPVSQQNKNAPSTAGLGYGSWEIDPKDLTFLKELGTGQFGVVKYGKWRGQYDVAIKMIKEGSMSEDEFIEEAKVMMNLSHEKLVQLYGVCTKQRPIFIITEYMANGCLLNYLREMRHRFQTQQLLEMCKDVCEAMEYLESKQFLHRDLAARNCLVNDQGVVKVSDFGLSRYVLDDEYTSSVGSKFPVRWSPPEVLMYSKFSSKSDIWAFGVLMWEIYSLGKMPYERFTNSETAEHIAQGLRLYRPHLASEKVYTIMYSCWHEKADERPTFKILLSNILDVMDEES", "assay": "AssayQuant kinact/Ki profiling, PhosphoSens CSox-based kinetic assay", "assay_type": "biochemical", "set-up": "purchased ThermoFisher / Life Technologies SelectScreen PV3363", "conditions": "0.6 nM enzyme, 1000 µM ATP, one step fit"}, "[1]": {"conditions": "BTK selectivity from IC50 values"}}, "note": "Entries after “also recorded” stand apart in the source; their conditions may differ. Where two headings read alike, the source gives them in different places.", "data": [{"smiles": "C=CC(=O)N1CCCC(n2nc(-c3c(C)cc(Oc4ccccc4)cc3C)c3c(N)ncnc32)C1", "note": "(stereo in doubt) [Compound 3]", "values": [{"measurement": "inhibition at 1 µM", "setting": "ABL2 (Arg)", "value": 0, "unit": "%"}, {"measurement": "inhibition at 1 µM", "setting": "CSK", "value": 15, "unit": "%"}, {"measurement": "inhibition at 1 µM", "setting": "CSNK1E (CK1 epsilon)", "value": 9, "unit": "%"}, {"measurement": "inhibition at 1 µM", "setting": "EGFR (ErbB1) L858R", "value": 2, "unit": "%"}, {"measurement": "inhibition at 1 µM", "setting": "EGFR (ErbB1) T790M L858R", "value": 6, "unit": "%"}, {"measurement": "inhibition at 1 µM", "setting": "EGFR (ErbB1) T790M", "value": 6, "unit": "%"}, {"measurement": "inhibition at 1 µM", "setting": "FGFR1", "value": -1, "unit": "%"}, {"measurement": "inhibition at 1 µM", "setting": "FGFR2", "value": 8, "unit": "%"}, {"measurement": "inhibition at 1 µM", "setting": "FGR", "value": 53, "unit": "%"}, {"measurement": "inhibition at 1 µM", "setting": "FLT3", "value": 13, "unit": "%"}, {"measurement": "inhibition at 1 µM", "setting": "FLT4 (VEGFR3)", "value": 5, "unit": "%"}, {"measurement": "inhibition at 1 µM", "setting": "KDR (VEGFR2)", "value": 5, "unit": "%"}, {"measurement": "inhibition at 1 µM", "setting": "TNK1", "value": 2, "unit": "%"}, {"measurement": "inhibition at 1 µM", "setting": "YES1", "value": 45, "unit": "%"}, {"measurement": "inhibition at 1 µM", "setting": "MAP2K2 (MEK2)", "value": 2, "unit": "%"}, {"measurement": "inhibition at 1 µM", "setting": "TNK2 (ACK)", "value": 4, "unit": "%"}, {"measurement": "inhibition at 1 µM", "setting": "ZAK", "value": 0, "unit": "%"}, {"measurement": "inhibition at 1 µM", "setting": "BLK", "value": 100, "unit": "%"}, {"measurement": "IC50", "setting": "BLK; BLK IC50, Z′-Lyte, [ATP] Km app, 1 h incubation, duplicate", "value": 35.6, "unit": "nM"}, {"measurement": "Hillslope", "setting": "BLK; BLK IC50 curve", "value": 1.08}, {"measurement": "BLK, BTK/Kinase", "setting": "BLK; [1]", "value": 2.8, "unit": "x"}, {"measurement": "inhibition at 0.000495 µM", "setting": "BLK; read-out: % Inhibition Point 1", "value": -5, "unit": "%"}, {"measurement": "inhibition at 0.00152 µM", "setting": "BLK; read-out: % Inhibition Point 1", "value": 5, "unit": "%"}, {"measurement": "inhibition at 0.00457 µM", "setting": "BLK; read-out: % Inhibition Point 1", "value": 13, "unit": "%"}, {"measurement": "inhibition at 0.0137 µM", "setting": "BLK; read-out: % Inhibition Point 1", "value": 30, "unit": "%"}, {"measurement": "inhibition at 0.0412 µM", "setting": "BLK; read-out: % Inhibition Point 1", "value": 56, "unit": "%"}, {"measurement": "inhibition at 0.123 µM", "setting": "BLK; read-out: % Inhibition Point 1", "value": 77, "unit": "%"}, {"measurement": "inhibition at 0.37 µM", "setting": "BLK; read-out: % Inhibition Point 1", "value": 98, "unit": "%"}, {"measurement": "inhibition at 1.11 µM", "setting": "BLK; read-out: % Inhibition Point 1", "value": 101, "unit": "%"}, {"measurement": "inhibition at 3.33 µM", "setting": "BLK; read-out: % Inhibition Point 1", "value": 101, "unit": "%"}, {"measurement": "inhibition at 10 µM", "setting": "BLK; read-out: % Inhibition Point 1", "value": 101, "unit": "%"}, {"measurement": "inhibition at 0.000495 µM", "setting": "BLK; read-out: % Inhibition Point 2", "value": 8, "unit": "%"}, {"measurement": "inhibition at 0.00152 µM", "setting": "BLK; read-out: % Inhibition Point 2", "value": -3, "unit": "%"}, {"measurement": "inhibition at 0.00457 µM", "setting": "BLK; read-out: % Inhibition Point 2", "value": 7, "unit": "%"}, {"measurement": "inhibition at 0.0137 µM", "setting": "BLK; read-out: % Inhibition Point 2", "value": 24, "unit": "%"}, {"measurement": "inhibition at 0.0412 µM", "setting": "BLK; read-out: % Inhibition Point 2", "value": 55, "unit": "%"}, {"measurement": "inhibition at 0.123 µM", "setting": "BLK; read-out: % Inhibition Point 2", "value": 82, "unit": "%"}, {"measurement": "inhibition at 0.37 µM", "setting": "BLK; read-out: % Inhibition Point 2", "value": 96, "unit": "%"}, {"measurement": "inhibition at 1.11 µM", "setting": "BLK; read-out: % Inhibition Point 2", "value": 101, "unit": "%"}, {"measurement": "inhibition at 3.33 µM", "setting": "BLK; read-out: % Inhibition Point 2", "value": 102, "unit": "%"}, {"measurement": "inhibition at 10 µM", "setting": "BLK; read-out: % Inhibition Point 2", "value": 101, "unit": "%"}, {"measurement": "IC50", "setting": "ITK", "value": "> 10000", "unit": "nM"}, {"measurement": "inhibition at 1 µM", "setting": "ITK", "value": 8, "unit": "%"}, {"measurement": "ITK, BTK/Kinase", "setting": "ITK; [1]", "value": "> 781", "unit": "x"}, {"measurement": "Hillslope", "setting": "ITK; ITK IC50 curve", "value": 1.28}, {"measurement": "ITK IC50", "setting": "ITK; Z′-Lyte, [ATP] Km app, 1 h incubation, duplicate", "value": "no observable activities; also recorded: no observable ITK activity"}, {"measurement": "inhibition at 0.00457 µM", "setting": "ITK; read-out: % Inhibition Point 1", "value": -1, "unit": "%"}, {"measurement": "inhibition at 0.0137 µM", "setting": "ITK; read-out: % Inhibition Point 1", "value": -4, "unit": "%"}, {"measurement": "inhibition at 0.0412 µM", "setting": "ITK; read-out: % Inhibition Point 1", "value": -4, "unit": "%"}, {"measurement": "inhibition at 0.123 µM", "setting": "ITK; read-out: % Inhibition Point 1", "value": -2, "unit": "%"}, {"measurement": "inhibition at 0.37 µM", "setting": "ITK; read-out: % Inhibition Point 1", "value": 5, "unit": "%"}, {"measurement": "inhibition at 1.11 µM", "setting": "ITK; read-out: % Inhibition Point 1", "value": 8, "unit": "%"}, {"measurement": "inhibition at 3.33 µM", "setting": "ITK; read-out: % Inhibition Point 1", "value": 13, "unit": "%"}, {"measurement": "inhibition at 10 µM", "setting": "ITK; read-out: % Inhibition Point 1", "value": 51, "unit": "%"}, {"measurement": "inhibition at 0.000495 µM", "setting": "ITK; read-out: % Inhibition Point 2", "value": 7, "unit": "%"}, {"measurement": "inhibition at 0.00152 µM", "setting": "ITK; read-out: % Inhibition Point 2", "value": -5, "unit": "%"}, {"measurement": "inhibition at 0.00457 µM", "setting": "ITK; read-out: % Inhibition Point 2", "value": -1, "unit": "%"}, {"measurement": "inhibition at 0.0137 µM", "setting": "ITK; read-out: % Inhibition Point 2", "value": 1, "unit": "%"}, {"measurement": "inhibition at 0.0412 µM", "setting": "ITK; read-out: % Inhibition Point 2", "value": -2, "unit": "%"}, {"measurement": "inhibition at 0.123 µM", "setting": "ITK; read-out: % Inhibition Point 2", "value": 0, "unit": "%"}, {"measurement": "inhibition at 0.37 µM", "setting": "ITK; read-out: % Inhibition Point 2", "value": 5, "unit": "%"}, {"measurement": "inhibition at 1.11 µM", "setting": "ITK; read-out: % Inhibition Point 2", "value": 4, "unit": "%"}, {"measurement": "inhibition at 3.33 µM", "setting": "ITK; read-out: % Inhibition Point 2", "value": 16, "unit": "%"}, {"measurement": "inhibition at 10 µM", "setting": "ITK; read-out: % Inhibition Point 2", "value": 47, "unit": "%"}, {"measurement": "kinact/KI", "setting": "BTK", "value": 31000, "unit": "M⁻¹ s⁻¹"}, {"measurement": "BTK kinact/Ki", "setting": "BTK; listed as Dimethyl Analog", "value": "31,600 M^-1S^-1"}]}]}
